From ChEMBL document CHEMBL5360653, “Marine Alkaloid Lepadins E and H Induce Ferroptosis for Cancer Chemotherapy” (J Med Chem, 2023) come the findings set out here.

Data set [1] relates to HeLa. Description: Induction of ROS generation in human HeLa cells assessed as increase in ROS level at 20 uM incubated for 1 hrs (reference value: 39.6%). The data set is classed as functional.
In data set [2] the test system is HeLa. Briefly: Induction of apoptosis in human HeLa cells assessed as necrotic cells incubated at 4 uM for 24 hrs measured by annexin V-PI staining based FITC analysis (reference value: 0.70%). The data set is classed as functional.
Data set [3] concerns HeLa. Briefly: Induction of ROS generation in human HeLa cells assessed as increase in ROS level at 10 uM incubated for 1 hrs (reference value: 39.6%). The format is functional.
For data set [4], the system named is HeLa. Briefly: Induction of apoptosis in human HeLa cells assessed as necrotic cells incubated at 10 uM for 24 hrs measured by annexin V-PI staining based FITC analysis (reference value: 0.70%). The data set is classed as functional.
In data set [5] the test system is HeLa. Briefly: Induction of apoptosis in human HeLa cells assessed as necrotic cells incubated at 6 uM for 24 hrs measured by annexin V-PI staining based FITC analysis (reference value: 0.70%). The data set is classed as functional.
The test system of data set [6] is HeLa. Description: Induction of apoptosis in human HeLa cells assessed as late apoptotic cells preincubated with PFTalpha followed by compound addition at 10 uM for 24 hrs measured by annexin V-PI staining based FITC analysis (reference value: 2.3%). The data set is classed as functional.
Data set [7] relates to HeLa. Description: Induction of apoptosis in human HeLa cells assessed as late apoptotic cells incubated at 10 uM for 24 hrs measured by annexin V-PI staining based FITC analysis (reference value: 1.81%). The data set is classed as functional.
The subject of data set [8] is HeLa. Briefly: Induction of ROS generation in human HeLa cells assessed as increase in ROS level at 10 uM incubated for 0.5 hrs (reference value: 39.6%). The format is functional.
A short description of data set [9]: Toxicity in immunocompetent C57BL/6J mouse allografted with B16-F10 cells assessed as tissue damage in heart administered at 30 mg/kg, ip daily for 14 days by hematoxylin and eosin staining analysis. The data set is classed as organism-based. Conditions: in vivo, 336 h, time 14 day.
Data set [10] can be described thus: Toxicity in immunocompetent C57BL/6J mouse allografted with B16-F10 cells assessed as change of organ index in thymus administered at 30 mg/kg, ip daily for 14 days by hematoxylin and eosin staining analysis. The format is organism-based. As to conditions: in vivo, 336 h, time 14 day.
Data set [11] concerns HeLa. Briefly: Induction of apoptosis in human HeLa cells assessed as late apoptotic cells incubated at 6 uM for 24 hrs measured by annexin V-PI staining based FITC analysis (reference value: 1.81%). The data set is classed as functional.
A short description of data set [12]: Toxicity in immunocompetent C57BL/6J mouse allografted with B16-F10 cells assessed as change of organ index in lungs administered at 30 mg/kg, ip daily for 14 days by hematoxylin and eosin staining analysis. The data set is classed as organism-based. Conditions: in vivo, 336 h, time 14 day.
A short description of data set [13]: Toxicity in immunocompetent C57BL/6J mouse allografted with B16-F10 cells assessed as change of organ index in kidney administered at 30 mg/kg, ip daily for 14 days by hematoxylin and eosin staining analysis. As to conditions: in vivo, 336 h, time 14 day. The data set is classed as organism-based.
The subject of data set [14] is HeLa. Briefly: Induction of ferroptosis in human HeLa cells assessed as downregulation of GPX4 level measured at 4 to 10 uM for 24 hrs by Western blotting analysis. The data set is classed as functional, cell-based. Conditions: dose 4-10 µM. In general terms: Immunoblotting shows a protein as a band on a membrane.
Data set [15] deals with HeLa. Briefly: Induction of apoptosis in human HeLa cells assessed as late apoptotic cells incubated at 10 uM for 24 hrs measured by annexin V-PI staining based FITC analysis (reference value: 2.3%). The data set is classed as functional.
The subject of data set [16] is HeLa. Description: Induction of ROS generation in human HeLa cells assessed as increase in ROS level at 6 to 10 uM. As to conditions: dose 6-10 µM. The data set is classed as functional, cell-based.
Data set [17] in a line: Toxicity in immunocompetent C57BL/6J mouse allografted with B16-F10 cells assessed as change in body weight administered at 30 mg/kg, ip daily for 14 days measured every 3 days. The data set is classed as organism-based. As to conditions: in vivo, 336 h, time 14 day.
Another data set deals with B16-F10. Briefly: Induction of ferroptosis in mouse B16-F10 cells assessed as cell viability in presence of liproxstatin-1 at 10 uM. The format is functional, cell-based.
Data set [18] deals with HeLa. Briefly: Induction of apoptosis in human HeLa cells assessed as necrotic cells incubated at 10 uM for 24 hrs measured by annexin V-PI staining based FITC analysis (reference value: 1.6%). The data set is classed as functional.
For data set [19], the system named is HeLa. Description: Induction of apoptosis in human HeLa cells assessed as early apoptotic cells incubated at 6 uM for 24 hrs measured by annexin V-PI staining based FITC analysis (reference value: 3.94%). The format is functional.
The subject of data set [20] is HeLa. Description: Induction of apoptosis in human HeLa cells assessed as early apoptotic cells incubated at 10 uM for 24 hrs measured by annexin V-PI staining based FITC analysis (reference value: 3.28%). The data set is classed as functional.
The subject of data set [21] is HeLa. Briefly: Induction of ROS generation in human HeLa cells assessed as increase in ROS level at 20 uM incubated for 1 hrs (reference value: 37.8%). The data set is classed as functional.
In data set [22] the test system is HeLa. Briefly: Induction of apoptosis in human HeLa cells assessed as necrotic cells incubated at 4 uM for 24 hrs measured by annexin V-PI staining based FITC analysis (reference value: 0.58%). The data set is classed as functional.
The test system of data set [23] is HeLa. Description: Induction of ROS generation in human HeLa cells assessed as increase in ROS level at 10 uM incubated for 0.5 hrs (reference value: 37.8%). The data set is classed as functional.
Data set [24] deals with HeLa. Description: Induction of ROS generation in human HeLa cells assessed as increase in ROS level at 20 uM incubated for 0.5 hrs (reference value: 37.8%). The format is functional.
For data set [25], the system named is HeLa. Briefly: Induction of apoptosis in human HeLa cells assessed as necrotic cells incubated at 6 uM for 24 hrs measured by annexin V-PI staining based FITC analysis (reference value: 0.58%). The data set is classed as functional.
Data set [26] has as its system HeLa. Briefly: Induction of apoptosis in human HeLa cells assessed as viable cells preincubated with PFTalpha followed by compound addition at 10 uM for 24 hrs measured by annexin V-PI staining based FITC analysis (reference value: 91.6%). The data set is classed as functional. Conditions: read-out: Activity.
In data set [27] the test system is HeLa. Description: Induction of apoptosis in human HeLa cells assessed as late apoptotic cells incubated at 4 uM for 24 hrs measured by annexin V-PI staining based FITC analysis (reference value: 1.54%). The data set is classed as functional.
Data set [28] relates to HeLa. Briefly: Induction of apoptosis in human HeLa cells assessed as early apoptotic cells preincubated with PFTalpha followed by compound addition at 10 uM for 24 hrs measured by annexin V-PI staining based FITC analysis (reference value: 3.28%). The format is functional.
Data set [29] relates to HeLa. Briefly: Induction of apoptosis in human HeLa cells assessed as early apoptotic cells incubated at 8 uM for 24 hrs measured by annexin V-PI staining based FITC analysis (reference value: 3.94%). The data set is classed as functional.

Calls of active or inactive are those of the source. The calls are words filed in the database; no cut-off is given here.

For `CCC/C=C/C=C/C(=O)O[C@@H]1C[C@H]2[C@@H](CCCC[C@H](O)CCC)CCC[C@H]2N[C@H]1C`, the Activity was 90.1% in the data set with HeLa [1]; 1.14% in the data set with HeLa [2]; 81.5% with HeLa [3]; 2.13% in the data set on HeLa [4]; 0.94% in the data set on HeLa [5]; 19.5% in the data set on HeLa [6]. Further, the Activity in the data set with HeLa [7] was 5.53%; in the data set on HeLa [8] it was 77.7%; in data set [9], “Non-Toxic”; in data set [10], “Non-Toxic”; in the data set with HeLa [11], 3.94%; in data set [12], “Non-Toxic”. Also, the Activity result in data set [13] is on record as “Non-Toxic”; with HeLa [15] it was 45.3%; in data set [17], “Non-Toxic”. Moreover, the result in the data set with HeLa [14], in the data set with HeLa [16] and in the data set on B16-F10 was Active.
Consider `CCCCC/C=C/C(=O)O[C@@H]1C[C@H]2[C@@H](CCCC[C@H](O)CCC)CCC[C@H]2N[C@H]1C`, for which the Activity with HeLa [18] was determined as 5.06%; with HeLa [19] it was 30.6%; in the data set with HeLa [20], 35.6%; in the data set with HeLa [21], 86.9%; with HeLa [22] it was 0.53%; in the data set with HeLa [23], 55.1%. For the same compound, the Activity was 80.6% with HeLa [24]; 0.85% with HeLa [25]; 2.73% with HeLa [27]; 31.9% in the data set on HeLa [28]; 20.9% in the data set with HeLa [29]. In addition, the viability at 10 µM with HeLa [26] was 36.4%.
